From patent publication US20190070170A1, “METHOD OF S[…]-1” (Macau University of Science and Technology, priority 2017, published 2019) come the findings set out here.

In one assay the test system is COX-1. Description: COX-1 protein expression in LPS-activated rat peritoneal macrophages (western blotting). Format: cell-based. Particulars: SIN or DEX 1 h, LPS 24 h. On the procedure:
Sprague-Dawley (SD) rats from the University of Hong Kong were housed in cages with free access to food and water. Peritoneal macrophages of SD rats were isolated as described in Liu J. et al., Pharmacological research 2016, 111:303-315. Briefly, untreated rats were sacrificed and after laparotomy, about 50 ml cold sterile Hank's balanced salt solution (HBSS) was used to lavage the peritoneal cavity at twice, and then the peritoneal lavage fluid was collected and centrifuged at 1500 rpm for 10 min. The cell pellets was suspended at a density 1.5×10^6 cells/ml in pre-hearted DMEM medium with 10% heat-inactivated FBS, penicillin G (100 units/ml), streptomycin ([…]), and L-glutamine (2 mM), followed by seeding in 6-well plates at a density of 4.5×10^6 cells and incubation for 2 h. Then the medium were discarded to remove the non-adherent cells. The adherent cells were further washed for two times with pre-heated DMEM medium to remove floating cells. Next, cells were pre-treated with various concentration of SIN for 1 h, followed by stimulation with LPS (1 μg/ml).
(§1) Whole-cell and nuclear proteins were obtained using RIPA lysis buffer (CST, Boston, Mass., USA) and Nuclear and Cytoplasmic Extraction Reagents kit from Thermo Scientific (Asheville, N.C., USA), respectively. […] The levels of protein expression were measured using Odyssey v3.0 software from Li-COR (Lincoln, Nebr., USA).
For orientation: Immunoblotting shows a protein as a band on a membrane.

In a further assay the test system is COX-2. Description: COX-2 protein expression in hind paws of CIA DBA/1 mice. Format: in vivo. Particulars: SIN 100 mg/kg i.p. How it is done:
Female DBA/1 mice (8-9 weeks old) were purchased from Shanghai SiLaike (SLAC) Laboratory Animal Company (Shanghai, China) and fed with a chow diet and water at room temperature. Equal volume of complete Freuend's adjuvant (CFA) and Bovine Type II Collagen (CII) were mixed and emulsified using a homogenizer (13,000 rpm) on ice. On day 0, DBA/1 mice were immunized by injecting 50 μl of CII in CFA in the tail, approximately 2 cm from the base of the tail. […] The incidence of joint swelling in each group was recorded every two days since drug treatment. […]
Frozen paws were pulverized in liquid nitrogen using a stainless steel mortar and pestle, then re-suspended in 8 volumes of ice-cold PBS from Invitrogen (San Diego, Calif., USA) with 2.6 mM DTT from Promega (Madison, Wis., USA) and 2×Complete Protease Inhibitor mixture from Roche (Mannheim, Germany), and homogenized on ice bath using a tissue homogenizer from T25 digital, IKA (Stanfen, Germany) at 10,000 rpm/min for 5 min. […] The protein concentrations were measured using a Bio-Rad protein assay kit (Hercules, Calif., USA). […]
as §1

A further assay deals with iNOS. Description: iNOS protein level in LPS-stimulated RAW264.7 cells (immunoblotting). The assay is classed as cell-based, mouse. Particulars: pretreatment 1 h, LPS 100 ng/ml 18 h. How it is done:
RAW264.7 and A549 cell lines were obtained from American Type Culture Collection (ATCC, Manassas, Va., USA) and maintained in DMEM (RAW264.7) or 1640 (A549) medium containing 10% FBS (Gibco-BRL, Grand Island, N.Y., USA) and antibiotics at 37° C. in a humidified atmosphere containing 5% CO2. RAW264.7 cells were plated in 6-well plates at a density of 4×10^5 cells and incubated for 24 h, then the cells were pretreated with different concentrations of SIN for 1 h before stimulating with LPS (100 ng/ml). A549 cells were seeded in 6-well plates at a density of 1×10^5 cells and incubated for 24 h, followed by pretreatment with SIN. A549 cells were then stimulated by IL-1β (1 ng/ml).
Whole-cell and nuclear proteins were obtained using RIPA lysis buffer (CST, Boston, Mass., USA) and Nuclear and Cytoplasmic Extraction Reagents kit from Thermo Scientific (Asheville, N.C., USA), respectively. For immunoblotting, proteins from whole-cell, cytoplasm, nuclear, and microsomal fractions were separated on SDS-PAGE, then transferred onto a nitrocellulose membrane from GE Healthcare Life Sciences (Buckinghamshire, UK), and incubated with 5% skimmed milk at room temperature for 1 h. […] The levels of protein expression were measured using Odyssey v3.0 software from Li-COR (Lincoln, Nebr., USA).

As to `COC1=C[C@@H]2[C@@H]3Cc4ccc(OC)c(O)c4[C@]2(CCN3C)CC1=O` [SIN, sinomenine], in the assay on COX-1, the COX-1 protein expression entry was “did not suppress”. In addition, in the assay on COX-2, the “COX-2 expression in paw tissues” value is given as “did not produce observable changes”. In the assay on iNOS, the iNOS expression entry was “significantly inhibited”.
